Measurements from paper doi:10.1101/2025.03.13.643086, “Granzyme-targeting quenched activity-based probes for assessing tumor response to immunotherapy” (bioRxiv, 2025).

Test: Hydrolytic stability of qABPs in media (Cy5 fluorescence over time)
Format: physicochemical
Details: cell culture media (10% FBS), 24 h incubation
Experimental: Supplementary Figure 1. E-2B-0B-2Quenching effect and stability of qABP 10. (A) The fluorescence for each probe (10 µM) was measured at Ex/Em: 640/670 nm. (B) The stability of qABP 10 in PBS and different cell culture media (supplemented with 10% FBS) was measured by monitoring the production of Cy5 fluorescence signal over time.
11 CO2- In-gel fluorescence: Cy5
Supplementary Figure 2. (A) Chemical structure of compound 11. (B) hGzmB labeling assay with 11. Recombinant human active GzmB (50 nM) was incubated with 8 or 11 (500 nM) for 1 h.
Protein samples were analyzed by SDS-PAGE and in-gel fluorescence scanning for Cy5 signal.
(1 picture or pasted object on this page, not shown here)
PBS RIPA Myelocult 17 In-gel fluorescence:
Supplementary Figure 8. Activity-based GzmA profiling. (A) Left: Dose-dependent labeling of GzmA with 16 and 17 in NK-92 cell lysates. Middle, Right: GzmA selective labeling in different cell lysates with 17 (Middle) and 16 (Right) (50 nM, 1 h, 37 °C). Briefly, cell lysates were prepared with RIPA lysis buffer, and 20 µg of proteins were incubated with 50 nM of 16 or 17 for 1 h at 37 °C and analyzed by SDS-PAGE. […]
dependent in situ labeling of GzmA in NK-92 cells with 14-17 (2 h, 37 °C). […] After denaturing with 4X SDS-reducing buffer, 20 µg of proteins were analyzed by SDS-PAGE and in-gel fluorescence scanning for Cy5 signal. […]

CC[C@H](C)[C@H](NC(=O)CCCCCN1/C(=C/C=C/C=C/C2=[N+](CC)c3ccc(S(=O)(=O)O)cc3C2(C)C)C(C)(C)c2cc(S(=O)(=O)O)ccc21)C(=O)N[C@@H](CCC(=O)O)C(=O)N1CCC[C@H]1C(=O)NC(CS(=O)(=O)O)P(=O)(Oc1ccc(CCNC(=O)C2CCN(S(=O)(=O)c3ccccc3-c3c4ccc(=[N+]5CCc6ccccc65)cc-4oc4cc(N5CCc6ccccc65)ccc34)CC2)cc1)c1ccccc1 (stereo partly shown) [Compound 10, Cy5-IEPCya^PhP-QSY21]
hydrolyzed product: less than 50%
